One assay concerns digitoxin antibodies. The assay is described as follows: Column radioimmunoassay for digitoxin, Example 4. Format: binding, rabbit. Particulars: control = 100%, PBS buffer with 0.1% Tween 20. The procedure: 90 mg of digitoxin was suspended in 4 ml of ethanol at ambient temperature. 4 ml of a 0.1M sodium metaperiodate solution was added dropwise. The resulting solution was stirred for 25 minutes and 4 drops of 0.1M ethylene glycol was added. This solution was slowly added to 130 mg of bovine serum albumin in 4 ml of water previously adjusted to pH 9.5 with 5% K2 CO3. The pH was maintained between 9.0 and 9.5 with 5% K2 CO3. After 45 minutes, 0.05 g of NaBH4 in 4 ml of water was added. After 3 hours the pH was lowered to 6.5 with 1M formic acid. After 1 hour, the pH was raised to pH 8.5 with 1M NH4 OH and the mixture was dialyzed against distilled water overnight at 4° C. The next day, the suspension was centrifuged for 2 hours at 1500 rpm. The supernatant was concentrated to 6 ml in an Amicon U-2 ultrafilter, available from Amicon Corporation, Lexington, Massachusetts, and lyophilized.
The same procedure as described in Example 3 was followed except that the digitoxin-bovine serum albumin conjugate was prepared according to the method described in procedure a. above and this conjugate was dissolved in a few drops of dilute NaOH before being mixed with the PBS buffer.
The same procedure as described in Example 3 was followed.
The same procedure as described in Example 3 was followed except that the columns were equilibrated with 10 ml of PBS buffer containing 0.1% Tween 20, a detergent available from the Atlas Powder Company, Wilmington, Delaware, and that PBS buffer containing 0.1% Tween 20 was used in place of PBS buffer. The standard digitoxin solutions were prepared to the following concentrations: 5 ng/ml, 10 ng/ml, 20 ng/ml, 30 ng/ml, 40 ng/ml, and 50 ng/ml.
The results were as follows (with % bound being calculated based on setting 100% bound as the % bound of the control): […]

The next assay relates to digoxin antibodies. Kind of assay: Column radioimmunoassay for digoxin (competition with 3-0-succinyl digoxigenin tyrosine 125I). Format: binding, rabbit. The note with it: control = 100%, 30 + 30 minutes, pH 7.0. As for the experimental part: 400 mg of digoxin was suspended in 20 ml of absolute ethanol at ambient temperature. 0.45 g of sodium metaperiodate in 20 ml of water was added dropwise with stirring. After 25 minutes, 0.5 ml of 1M ethylene glycol was added. Five minutes later, this reaction mixture was added dropwise with stirring to 560 mg of bovine serum albumin in 20 ml of water previously adjusted to pH 9.5 with 5% K2 CO3. The pH was maintained between 9.0 and 9.5 by the dropwise addition of 5% K2 CO3. After 45 minutes 0.3 g of sodium borohydride in 20 ml of water was added. Three hours later, the pH was lowered to 6.5 with 1M formic acid. After 1 hour, the pH was raised to 8.5 with 1M NH4 OH. The entire reaction mixture was then dialyzed against distilled water overnight at 4° C. The next day, the pH was lowered to 4.5 with 0.1N HCl. After 1 hour at ambient temperature and 3 hours at 4° C., the suspension was centrifuged for 1 hour at 1500 rpm. The precipitate was dissolved in 21 ml of 0.15M NaHCO3, dialyzed against distilled water for 4 days, and lyophilized.
Rabbits were injected with inocula consisting of a 50/50 mixture of 4 mg/ml digoxin-bovine serum albumin conjugate, prepared according to the method described in procedure a., in 0.0075M phosphate-0.15M NaCl buffer (pH 7.0) and Freund's complete adjuvant. Four sites along the neck and back of the animals and each footpad were injected with 0.1 ml of this mixture. This procedure was repeated on the first and third weeks. Also, every second week the rabbits were injected intramuscularly with 0.4 ml of the inoculum. At one month intervals, ear bleedings were taken.
One (1.0) gram of CNBr-activated Sepharose 4B available from Pharmacia AB, Uppsala, Sweden, was added to 200 ml of 0.001N HCl, mixed for 15 minutes, and filtered under vacuum. The swollen Sepharose 4B was then washed with 200 ml of PBS buffer (0.0075 M phosphate-0.15M NaCl, pH 7.0) and resuspended in 3.0 ml of PBS buffer. Whole, unfractionated, diluted antiserum from procedure b. was added with stirring. The reaction mixture was stirred for 2 hours at ambient temperature and then for 22 hours at 4° C. The antibody-coupled Sepharose 4B suspension was washed with 400 ml of PBS buffer and an equal volume of PBS buffer containing 0.1% NaN3 was added. This mixture was in turn diluted with the addition of a 50% suspension of Sepharose 4B in distilled water to give a final dilution of antibody-coupled Sepharose 4B which would bind about half of the radioactive labeled antigen following procedure d. below where the fluid sample tested contained no digoxin. Two (2.0) ml volumes of the diluted antibody-coupled Sepharose 4B were added to 3 ml plastic Stylex syringes, available from Pharmaseal Laboratories, Glendale, California, fitted with polyethylene support disks to give 1 ml Sepharose 4B columns.
The columns were then equilibrated with 10 ml volumes of PBS buffer and allowed to drain. Standard digoxin solutions were prepared for the following digoxin concentrations: 0.5 ng/ml, 1.0 ng/ml, 2.0 ng/ml, 3.0 ng/ml, 4.0 ng/ml, and 5.0 ng/ml. A control containing no digoxin and the six digoxin standards were added to columns prepared according to procedure c. above in 0.5 ml volumes and allowed to incubate for 30 minutes. The reference sample containing 3-0-succinyl digoxigenin tyrosine ^125 I solution was then added to each column in 0.5 ml portions and allowed to incubate for 30 minutes. The columns were then counted using a Gammacord gamma counter. The columns were washed three times with 3.0 ml volumes of PBS buffer and counted again. The results were as follows (with % bound being calculated based on setting 100% as the % bound of the control): […]

Assay [1] has as its system HPL antibodies. The assay is described as follows: Column enzyme immunoassay for HPL with peroxidase labeled HPL, Example 6. Particulars: for % Color Bound: control = 100; for OD460: optical density of washings at 460 nm (control 1.2). Format: binding. As for the experimental part:
HPL was labeled with peroxidase according to the method described in Immunochemistry 6: 43(1969) with the following modifications: 10 mg (HPL and 10 mg horseradish peroxidase were dissolved in 1.4 ml of 0.05M carbonate buffer (pH 9), 0.05 ml of 3% glutaraldehyde solution was added to the mixture. The mixture was then rotated at ambient temperature for 90 minutes and then dialyzed against 128 ml of 0.1M borate buffer (pH 8) with several buffer changes.
The same procedure as in Example 1b was followed.
The packed columns were equilibrated by adding 20 ml portions of a borate buffer (pH 9) to the columns and allowing them to drain. The borate buffer was prepared as in Example 1c. HPL standards were prepared for the following HPL concentrations 1000 ng/ml and 62 ng/ml. A control containing no HPL and the two HPL standards were added to columns, prepared according to procedure b above in 0.5 ml volumes and allowed to incubate for 25 minutes. The reference sample containing peroxidase labeled HPL, prepared as in procedure a. above, was then added to each column in 0.5 ml portions and allowed to incubate for 25 minutes. The columns were washed with 10 ml volumes of 0.1M borate buffer (pH 8) followed by 3 ml volumes of 0.1M phosphate buffer (pH 6). A substrate-indicator solution, prepared by mixing 0.28 ml of 0.03% H2 O2 in water, 0.1 ml of 0.25% 3,3'-dimethylbenzidine, and 0.12 ml of 0.1M phosphate buffer (pH 6), was added to each column and allowed to incubate for 10 minutes. The columns were each washed with a 3 ml of volume of 0.1N HCl and the optical density (OD) of the washings were read at 460 nm with the following results: […]

The subject of assay [2] is HPL antibodies. Kind of assay: Column saturation radioimmunoassay for human placental lactogen (competition with 125I-HPL), Example 2. Format: binding, rabbit. The note with it: control = 100%, 30 minutes, pH 8.0. As for the experimental part:
Rabbits were injected with priming inocula consisting of a 50/50 mixture of 2.8 mg/ml HPL antigen in physiological saline solution (0.9%) and Freund's complete adjuvant. Each footpad was injected with 0.2 ml of this mixture. On days 21, 23, 56, 58, 91, 93, 126 and 128, 0.5 ml of booster inocula per day was injected intravenously into the animals. The booster inocula consisted of 0.7 mg/ml HPL antigen in physiological saline solution. Test bleedings were made on days 36 and 70, and on day 140 the animals were exsanguinated
The columns were prepared as in Example 1 using whole unfractionated HPL antiserum from procedure a. above.
The procedure as in Example 1c. was followed except that the borate-human serum albumin buffer was prepared to pH 8.0, the incubation times were 30 minutes, and the reference sample contained HPL labeled with ^125 I. […] The results were as follows (with % bound being calculated based on setting 100% bound as the % bound of the control): […]

As for `C[C@H]1O[C@@H](O[C@H]2[C@@H](O)C[C@H](O[C@H]3[C@@H](O)C[C@H](O[C@H]4CC[C@@]5(C)[C@H](CC[C@@H]6[C@@H]5CC[C@]5(C)[C@@H](C7=CC(=O)OC7)CC[C@]65O)C4)O[C@@H]3C)O[C@@H]2C)C[C@H](O)[C@@H]1O` [Digitoxin, digitoxin], the “% Bound” value in the assay with digitoxin antibodies (Digitoxin concentration 5.0 ng/ml) was determined as 83%; in the assay with digitoxin antibodies (Digitoxin concentration 10.0 ng/ml) it was 73.5%; with digitoxin antibodies (Digitoxin concentration 20.0 ng/ml), 64%; in the assay with digitoxin antibodies (Digitoxin concentration 30.0 ng/ml), 56.6%; in the assay with digitoxin antibodies (Digitoxin concentration 40.0 ng/ml), 50.2%; in the assay with digitoxin antibodies (Digitoxin concentration 50.0 ng/ml), 42%.
`C[C@H]1O[C@@H](O[C@H]2[C@@H](O)C[C@H](O[C@H]3[C@@H](O)C[C@H](O[C@H]4CC[C@@]5(C)[C@H](CC[C@@H]6[C@@H]5C[C@@H](O)[C@]5(C)[C@@H](C7=CC(=O)OC7)CC[C@]65O)C4)O[C@@H]3C)O[C@@H]2C)C[C@H](O)[C@@H]1O` [Digoxin, digoxin]: the “% Bound” value in the assay with digoxin antibodies (Digoxin concentration 0.5 ng/ml) is 92%; in the assay on digoxin antibodies (Digoxin concentration 1.0 ng/ml), 79.5%; in the assay on digoxin antibodies (Digoxin concentration 2.0 ng/ml), 60.2%; in the assay on digoxin antibodies (Digoxin concentration 3.0 ng/ml), 49.0%; in the assay on digoxin antibodies (Digoxin concentration 4.0 ng/ml), 41.3%; in the assay with digoxin antibodies (Digoxin concentration 5.0 ng/ml), 34.7%.

B1: HPL: human placental lactogen (HPL) (protein, UniProt P0DML2 27-217, looked up)
Chorionic somatomammotropin …: VQTVPLSRLFDHAMLQAHRAHQLAIDTYQEFEETYIPKDQKYSFLHDSQTSFCFSDSIPTPSNMEETQQKSNLELLRISLLLIESWLEPVRFLRSMFANNLVYDTSDSDDYHLLKDLEEGIQTLMGRLEDGSRRTGQILKQTYSKFDTNSHNHDALLKNYGLLYCFRKDMDKVETFLRMVQCRSVEGSCGF
Regarding B1, the figures for the “% Color Bound” value in the assay with HPL antibodies [1] (HPL concentration 62 ng/ml) and with HPL antibodies [1] (HPL concentration 1000 ng/ml) were 63% and 35%, respectively. The figures for the OD460 with HPL antibodies [1] (HPL concentration 62 ng/ml) and with HPL antibodies [1] (HPL concentration 1000 ng/ml) were 0.96 and 0.78, respectively. Also, the “% Bound (labeled HPL)” value with HPL antibodies [2] (HPL concentration 1 ng/ml) worked out at 98%; in the assay on HPL antibodies [2] (HPL concentration 15 ng/ml), 70%; with HPL antibodies [2] (HPL concentration 62 ng/ml), 42%; with HPL antibodies [2] (HPL concentration 1000 ng/ml), 9%.

For the origin of these results see patent publication US4039652A, “Column method of immunoassay employing an immobilized binding partner” (Miles Laboratories, Inc., priority 1973, dated 1977).
